In patent US6599525B2, “Dressings and bandages comprising same” (Johnson & Johnson Consumer Companies, Inc., priority 1998, dated 2003):

Experiments:
Assay in all cases: Microbiocidal activity of bandage samples on inoculated agar
Format in all cases: cell-based
Conditions in all cases: benzalkonium chloride in the dressing and bandage of the invention
Mycobacterium smegmatis = tested on: Mycobacterium smegmatis
Excerpt: (§1) The purpose of this test was to determine whether the efficacy of the benzalkonium chloride contained within the absorbent substrate of a bandage of the invention would be adversely affected when a portion of the skin-facing surface of the absorbent substrate contained a discontinuous coating of an ointment-like composition. The specimens tested were the bandages of Example 4 comprising the dressing of Example 2. Test samples 2.5 cm×2 cm were cut from the bandages so as to remove the longitudinally extending adhesive strip portions that extended beyond the boundary of the dressing portion of the bandage.
(§2) The microbiocidal activity of the benzalkonium chloride in the dressing was tested by placing samples of the dressing on a peptone-casein-soya agar growth medium contained in petri dishes having an area of 64 square centimeters that had been inoculated with certain microorganisms. The test samples were placed in the dishes so that the skin facing side of the dressing contacted the agar medium. The following microorganisms were used:
(§3) The bactericidal suspensions for seeding of the prepared petri dishes were taken from cultures in their exponential growth phase. The concentration of each suspension was determined according to an AENOR (Association Francaise Normalisation) standard method using spectrophotometry at 620 nm. Suspensions of the desired concentration were then prepared by successive dilution to give seeding stock solutions.
(§4) A standard volume of the seeding stock solution was placed in the center of each prepared petri dish and spread with the help of a spreader. The inoculated plates were dried off in a drying oven at 37° C. for 30 minutes. The dressings were placed on top of the medium in the manner described above, and the petri dishes were then incubated for a total of 24 to 48 hours at 37° C. Dishes were removed from the incubator periodically and the extent of bacterial growth underneath the dressing was measured.

Escherichia coli = tested on: Escherichia coli
Excerpt: as §1, §2, §3, §4

Streptococcus foecalis = tested on: Streptococcus foecalis
Excerpt: as §1, §2, §3, §4

Staphylococcus aureus = tested on: Staphylococcus aureus
Excerpt: as §1, §2, §3, §4

Measured: bactericidal activity (summary in words)

benzalkonium chloride
significant bactericidal activity: Mycobacterium smegmatis | Escherichia coli | Streptococcus foecalis | Staphylococcus aureus
